Format in all cases: functional
What all share (settings): read-out: Survival

Experiment [1] can be described thus: Cytotoxicity against multi-drug resistance human KBV cells assessed as cell survival rate at 5 uM incubated for 72 hrs by MTT assay. In general terms: Formazan colour is commonly taken as a measure of viable cells.
Experiment [2] can be described thus: Cytotoxicity against multi-drug resistance human KBV cells assessed as cell survival rate at 5 uM in presence of 100 nM Paclitaxel incubated for 72 hrs by MTT assay.
Experiment [3] is described as follows: Cytotoxicity against multi-drug resistance human KBV cells assessed as cell survival rate at 10 uM incubated for 72 hrs by MTT assay.
A short description of experiment [4]: Cytotoxicity against multi-drug resistance human KBV cells assessed as cell survival rate at 10 uM in presence of 100 nM Paclitaxel incubated for 72 hrs by MTT assay.

As for `CC(C)(O)[C@@H]1CC[C@@](C)([C@H]2CC[C@]3(C)[C@@H]2[C@H](O)C[C@@H]2[C@@]4(C)Cc5sc(NC(=O)CCCCCCCN)nc5C(C)(C)[C@@H]4CC[C@]23C)O1`, the results for the viability at 5 µM in experiment [1] and in experiment [2] were 44.7% and 29%, respectively. Also, the viability at 10 µM worked out at 16.5% in experiment [3] and 17.3% in experiment [4].

Turning to `CC(C)(O)[C@@H]1CC[C@@](C)([C@H]2CC[C@]3(C)[C@@H]2[C@H](O)C[C@@H]2[C@@]4(C)Cc5sc(NC(=O)CCCCCN)nc5C(C)(C)[C@@H]4CC[C@]23C)O1`, the viability at 5 µM in experiment [1] is 93.5%; in experiment [2], 72.2%. Moreover, the viability at 10 µM in experiment [3] turned out to be 72.2%; in experiment [4], 67.2%.

Consider `CC(C)(O)[C@@H]1CC[C@@](C)([C@H]2CC[C@]3(C)[C@@H]2[C@H](O)C[C@@H]2[C@@]4(C)Cc5sc(NC(=O)[C@H](N)Cc6ccccc6)nc5C(C)(C)[C@@H]4CC[C@]23C)O1`, for which the viability at 5 µM in experiment [1] came out at 103%; in experiment [2], 101%. Besides, the viability at 10 µM in experiment [3] was found to be 96%; in experiment [4] it was 50.2%.

On to `CC(C)(O)[C@@H]1CC[C@@](C)([C@H]2CC[C@]3(C)[C@@H]2[C@H](O)C[C@@H]2[C@@]4(C)Cc5sc(NC(=O)CN)nc5C(C)(C)[C@@H]4CC[C@]23C)O1`, for which the viability at 5 µM in experiment [1] turned out to be 94.6%; in experiment [2], 59.4%. Besides, the viability at 10 µM came out at 65.4% in experiment [3] and 30.2% in experiment [4].

With `CC(C)(O)[C@@H]1CC[C@@](C)([C@H]2CC[C@]3(C)[C@@H]2[C@H](O)C[C@@H]2[C@@]4(C)Cc5sc(N)nc5C(C)(C)[C@@H]4CC[C@]23C)O1`, the viability at 5 µM in experiment [1] came to 112%; in experiment [2], 68.7%. In addition, the viability at 10 µM in experiment [3] came out at 80.6%; in experiment [4], 48.6%.

For `CC(C)(O)[C@H]1CC[C@@](C)([C@H]2CC[C@]3(C)[C@@H]2[C@H](O)C[C@@H]2[C@@]4(C)Cc5sc(NC(=O)CCCCCCCCCCN)nc5C(C)(C)[C@@H]4CC[C@]23C)O1`, the viability at 5 µM in experiment [1] amounted to 43.6%; in experiment [2], 17.5%. Also, the viability at 10 µM in experiment [3] was found to be 12.4%; in experiment [4] it was 11.4%.

`C[C@H](N)C(=O)Nc1nc2c(s1)C[C@]1(C)[C@H]3C[C@@H](O)[C@@H]4[C@@H]([C@]5(C)CC[C@H](C(C)(C)O)O5)CC[C@@]4(C)[C@]3(C)CC[C@H]1C2(C)C`: the viability at 5 µM in experiment [1] was 91.4%; in experiment [2], 67.3%. Also, the viability at 10 µM is 103% in experiment [3] and 41% in experiment [4].

In the case of `CC(C)(O)[C@@H]1CC[C@@](C)([C@H]2CC[C@]3(C)[C@@H]2[C@H](O)C[C@@H]2[C@@]4(C)Cc5sc(NC(=O)CCCCCCCCCCN)nc5C(C)(C)[C@@H]4CC[C@]23C)O1`, the viability at 5 µM in experiment [1] was found to be 18.4%; in experiment [2] it was 18.1%. Moreover, the viability at 10 µM in experiment [3] is 17.5%; in experiment [4] it was 16.4%.

Regarding `CC(C)(O)[C@H]1CC[C@@](C)([C@H]2CC[C@]3(C)[C@H]2[C@H](O)C[C@@H]2[C@@]4(C)Cc5sc(NC(=O)[C@H](N)Cc6c[nH]c7ccccc67)nc5C(C)(C)[C@@H]4CC[C@]23C)O1`, the results for the viability at 5 µM in experiment [1] and in experiment [2] were 91.9% and 69.5%, respectively. Moreover, the viability at 10 µM came to 93.9% in experiment [3] and 55.6% in experiment [4].

`CC(C)(O)[C@H]1CC[C@@](C)([C@H]2CC[C@]3(C)[C@@H]2[C@H](O)C[C@@H]2[C@@]4(C)Cc5sc(NC(=O)[C@H]6CCCN6)nc5C(C)(C)[C@@H]4CC[C@]23C)O1`: the figures for the viability at 5 µM in experiment [1] and in experiment [2] were 84.1% and 39.5%, respectively. Also, the viability at 10 µM was determined as 59.5% in experiment [3] and 22.9% in experiment [4].

As for `C[C@H](N)C(=O)Nc1nc2c(s1)C[C@]1(C)[C@H]3C[C@@H](O)[C@@H]4[C@@H]([C@]5(C)CC[C@@H](C(C)(C)O)O5)CC[C@@]4(C)[C@]3(C)CC[C@H]1C2(C)C`, the values for the viability at 5 µM in experiment [1] and in experiment [2] were 95.7% and 77.4%, respectively. Also, the viability at 10 µM stood at 97.4% in experiment [3] and 46% in experiment [4].

On to `CC(C)C[C@H](N)C(=O)Nc1nc2c(s1)C[C@]1(C)[C@H]3C[C@@H](O)[C@@H]4[C@@H]([C@]5(C)CC[C@@H](C(C)(C)O)O5)CC[C@@]4(C)[C@]3(C)CC[C@H]1C2(C)C`, for which the viability at 5 µM in experiment [1] turned out to be 89.3%; in experiment [2], 71.8%. Further, the viability at 10 µM in experiment [3] was 98.1%; in experiment [4] it was 50.9%.

Consider `CC(C)(O)[C@@H]1CC[C@@](C)([C@H]2CC[C@]3(C)[C@@H]2[C@H](O)C[C@@H]2[C@@]4(C)Cc5sc(NC(=O)[C@H](N)Cc6c[nH]c7ccccc67)nc5C(C)(C)[C@@H]4CC[C@]23C)O1`, for which the values for the viability at 5 µM in experiment [1] and in experiment [2] were 92.8% and 94.4%, respectively. Moreover, the viability at 10 µM in experiment [3] turned out to be 95.7%; in experiment [4] it was 76.3%.

As to `CC(C)(O)[C@H]1CC[C@@](C)([C@H]2CC[C@]3(C)[C@@H]2[C@H](O)C[C@@H]2[C@@]4(C)Cc5sc(NC(=O)CCCCCN)nc5C(C)(C)[C@@H]4CC[C@]23C)O1`, the viability at 5 µM in experiment [1] amounted to 35.3%; in experiment [2] it was 21.6%. Besides, the viability at 10 µM came to 30.3% in experiment [3] and 12.5% in experiment [4].

`CC(C)(O)[C@H]1CC[C@@](C)([C@H]2CC[C@]3(C)[C@@H]2[C@H](O)C[C@@H]2[C@@]4(C)Cc5sc(NC(=O)CCCN)nc5C(C)(C)[C@@H]4CC[C@]23C)O1`: the figures for the viability at 5 µM in experiment [1] and in experiment [2] were 34.7% and 19.8%, respectively. Moreover, the viability at 10 µM in experiment [3] was 14.9%; in experiment [4], 12.6%.

For the compound `CC(C)(O)[C@H]1CC[C@@](C)([C@H]2CC[C@]3(C)[C@@H]2[C@H](O)C[C@@H]2[C@@]4(C)CC[C@H](O)C(C)(C)[C@@H]4CC[C@]23C)O1`, the viability at 10 µM in experiment [4] was found to be 86.6%.

As for `CC(C)(O)[C@@H]1CC[C@@](C)([C@H]2CC[C@]3(C)[C@@H]2[C@H](O)C[C@@H]2[C@@]4(C)Cc5sc(NC(=O)[C@H]6CCCN6)nc5C(C)(C)[C@@H]4CC[C@]23C)O1`, the viability at 5 µM came out at 94.6% in experiment [1] and 69.8% in experiment [2]. Moreover, the viability at 10 µM in experiment [3] came to 93.3%; in experiment [4], 48.1%.

Turning to `CC(C)(O)[C@H]1CC[C@@](C)([C@H]2CC[C@]3(C)[C@@H]2[C@H](O)C[C@@H]2[C@@]4(C)Cc5sc(NC(=O)CCCCCCCN)nc5C(C)(C)[C@@H]4CC[C@]23C)O1`, the viability at 5 µM in experiment [1] turned out to be 38.3%; in experiment [2], 23.6%. Besides, the viability at 10 µM in experiment [3] came out at 23.5%; in experiment [4], 15%.

With `CC(C)(O)[C@H]1CC[C@@](C)([C@H]2CC[C@]3(C)[C@@H]2[C@H](O)C[C@@H]2[C@@]4(C)Cc5sc(N)nc5C(C)(C)[C@@H]4CC[C@]23C)O1`, the viability at 5 µM in experiment [1] is 104%; in experiment [2], 33.7%. The viability at 10 µM came to 73.9% in experiment [3] and 18.2% in experiment [4].

As for `CC(C)[C@H](N)C(=O)Nc1nc2c(s1)C[C@]1(C)[C@H]3C[C@@H](O)[C@H]4[C@@H]([C@]5(C)CC[C@H](C(C)(C)O)O5)CC[C@@]4(C)[C@]3(C)CC[C@H]1C2(C)C`, the viability at 5 µM was found to be 95.2% in experiment [1] and 91.6% in experiment [2]. Moreover, the viability at 10 µM in experiment [3] was determined as 92.7%; in experiment [4], 54.2%.

For the compound `CC(C)[C@H](N)C(=O)Nc1nc2c(s1)C[C@]1(C)[C@H]3C[C@@H](O)[C@H]4[C@@H]([C@]5(C)CC[C@@H](C(C)(C)O)O5)CC[C@@]4(C)[C@]3(C)CC[C@@]1(O)C2(C)C`, the viability at 5 µM worked out at 92.5% in experiment [1] and 98.6% in experiment [2]. Also, the viability at 10 µM in experiment [3] was 100%; in experiment [4] it was 90.7%.

As for `CC(C)(O)[C@@H]1CC[C@@](C)([C@H]2CC[C@]3(C)[C@@H]2[C@H](O)C[C@@H]2[C@@]4(C)Cc5sc(NC(=O)CCCN)nc5C(C)(C)[C@@H]4CC[C@]23C)O1`, the viability at 5 µM was 106% in experiment [1] and 90% in experiment [2]. The viability at 10 µM in experiment [3] was found to be 67.2%; in experiment [4], 57%.

Regarding `CC(C)C[C@H](N)C(=O)Nc1nc2c(s1)C[C@]1(C)[C@H]3C[C@@H](O)[C@H]4[C@@H]([C@]5(C)CC[C@H](C(C)(C)O)O5)CC[C@@]4(C)[C@]3(C)CC[C@H]1C2(C)C`, the viability at 5 µM came out at 92.8% in experiment [1] and 90.4% in experiment [2]. Moreover, the figures for the viability at 10 µM in experiment [3] and in experiment [4] were 89% and 32.6%, respectively.

With `CC(C)(O)[C@H]1CC[C@@](C)([C@H]2CC[C@]3(C)[C@@H]2[C@H](O)C[C@@H]2[C@@]4(C)Cc5sc(NC(=O)[C@H](N)Cc6ccccc6)nc5C(C)(C)[C@@H]4CC[C@]23C)O1`, the values for the viability at 5 µM in experiment [1] and in experiment [2] were 100% and 54.1%, respectively. For the same compound, the viability at 10 µM stood at 101% in experiment [3] and 39.1% in experiment [4].

On to `CC(C)(O)[C@@H]1CC[C@@](C)([C@H]2CC[C@]3(C)[C@@H]2[C@H](O)C[C@@H]2[C@@]4(C)CC[C@H](O)C(C)(C)[C@@H]4CC[C@]23C)O1`, for which the viability at 10 µM in experiment [4] amounted to 86.5%.

The record behind these values is ChEMBL document CHEMBL5352434, “Design, synthesis, and biological evaluation of ocotillol derivatives fused with 2-aminothiazole via A-ring as modulators of P-glycoprotein-mediated multidrug resistance” (Eur J Med Chem, 2022).
